Experimental findings from ChEMBL document CHEMBL1131663, “Terphenyl cyclooxygenase-2 (COX-2) inhibitors: optimization of the central ring and o-biphenyl analogs” (Bioorg Med Chem Lett, 1999) are described below.

The target of assay [1] is T1, Prostaglandin G/H synthase 1 (Ovis aries, UniProt P05979).
T1 sequence (P05979 whole entry): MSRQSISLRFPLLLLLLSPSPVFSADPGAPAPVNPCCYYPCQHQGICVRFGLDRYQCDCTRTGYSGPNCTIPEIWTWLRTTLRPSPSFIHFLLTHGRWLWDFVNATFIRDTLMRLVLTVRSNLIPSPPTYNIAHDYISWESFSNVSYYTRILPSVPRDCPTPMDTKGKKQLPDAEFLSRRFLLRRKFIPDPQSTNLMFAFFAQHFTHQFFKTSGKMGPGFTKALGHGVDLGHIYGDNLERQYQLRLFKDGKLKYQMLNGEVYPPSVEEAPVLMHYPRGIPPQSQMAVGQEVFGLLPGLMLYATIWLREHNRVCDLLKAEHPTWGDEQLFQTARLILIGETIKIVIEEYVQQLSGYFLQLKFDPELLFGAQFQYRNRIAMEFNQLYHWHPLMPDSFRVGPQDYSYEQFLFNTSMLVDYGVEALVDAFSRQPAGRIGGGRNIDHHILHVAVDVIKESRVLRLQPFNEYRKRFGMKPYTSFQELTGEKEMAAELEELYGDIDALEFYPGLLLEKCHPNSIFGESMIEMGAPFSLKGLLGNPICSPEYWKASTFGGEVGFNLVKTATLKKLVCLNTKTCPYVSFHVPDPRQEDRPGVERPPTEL
The assay can be described thus: In vitro inhibitory concentration against ovine COX-1.

The target of assay [2] is T2, Prostaglandin G/H synthase 2 (Homo sapiens, UniProt P35354).
T2 sequence (P35354 whole entry): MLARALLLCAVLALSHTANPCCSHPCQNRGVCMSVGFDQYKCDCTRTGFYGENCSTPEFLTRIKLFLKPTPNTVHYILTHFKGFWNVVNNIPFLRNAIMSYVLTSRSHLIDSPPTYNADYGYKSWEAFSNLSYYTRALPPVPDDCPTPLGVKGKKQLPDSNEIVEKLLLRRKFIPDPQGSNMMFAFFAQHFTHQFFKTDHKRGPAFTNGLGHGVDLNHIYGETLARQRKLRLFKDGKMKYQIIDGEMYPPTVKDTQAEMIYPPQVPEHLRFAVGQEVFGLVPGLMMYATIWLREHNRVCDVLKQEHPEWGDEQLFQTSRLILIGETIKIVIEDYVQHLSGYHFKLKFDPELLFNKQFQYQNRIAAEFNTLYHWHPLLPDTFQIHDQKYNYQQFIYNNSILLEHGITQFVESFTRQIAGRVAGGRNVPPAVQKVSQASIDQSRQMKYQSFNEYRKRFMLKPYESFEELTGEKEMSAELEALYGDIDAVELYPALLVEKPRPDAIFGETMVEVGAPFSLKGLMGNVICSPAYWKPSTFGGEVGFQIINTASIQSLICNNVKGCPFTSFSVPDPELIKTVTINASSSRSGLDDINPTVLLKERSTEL
Kind of assay: In vitro inhibitory concentration against recombinant human Prostaglandin G/H synthase 2 obtained from baculovirus.

In general, IC50 refers to the concentration needed to halve the response being measured. For `CS(=O)(=O)c1ccc(-c2ccccc2-c2ccccc2)cc1`, the IC50 in assay [1] was more than 1000 µM.

In the case of `CS(=O)(=O)c1ccc(-c2ccc([N+](=O)[O-])cc2-c2ccccc2)cc1`, the values for the IC50 in assay [1] and in assay [2] were more than 100 µM and 44 µM, respectively.

Turning to `CS(=O)(=O)c1ccc(-c2ccccc2-c2cncnc2)cc1`, the IC50 in assay [1] and in assay [2] was more than 300 µM throughout.

For `CS(=O)(=O)c1ccc(-c2ccccc2-c2ccc3ccccc3n2)cc1`, the values for the IC50 in assay [1] and in assay [2] were more than 1000 µM and 57 µM, respectively.

Turning to `CS(=O)(=O)c1ccc(-c2ccccc2-c2ccncc2)cc1`, the IC50 in assay [1] and in assay [2] was more than 300 µM each time.

In the case of `CS(=O)(=O)c1ccc(-c2ccccc2N2CCCCC2)cc1`, the figures for the IC50 in assay [1] and in assay [2] were 43 µM and 14 µM, respectively.

For the compound `CS(=O)(=O)c1ccc(-c2cc([N+](=O)[O-])ccc2-c2ccccc2)cc1`, the IC50 was more than 300 µM in assay [1] and 38 µM in assay [2].

Take `COc1ccc2cc(-c3ccccc3-c3ccc(S(C)(=O)=O)cc3)ccc2c1`: the IC50 in assay [1] was more than 1000 µM; in assay [2] it was 30 µM.

As for `CS(=O)(=O)c1ccc(-c2cc3ccccc3cc2-c2ccccc2)cc1`, the IC50 in assay [1] was more than 300 µM; in assay [2], 41 µM.

For `CS(=O)(=O)c1ccc(-c2ccccc2C2CCCCC2)cc1`, the concentration for half-maximal inhibition (IC50) is more than 1000 µM in assay [1] and 31 µM in assay [2].

In the case of `CS(=O)(=O)c1ccc(-c2cc(N)ccc2-c2ccccc2)cc1`, the IC50 in assay [1] was 35 µM; in assay [2] it was 194 µM.

For the compound `CN1CC=C(c2ccccc2-c2ccc(S(C)(=O)=O)cc2)CC1`, the half-inhibitory concentration (IC50) in assay [1] and in assay [2] was more than 300 µM throughout.

Regarding `CS(=O)(=O)c1ccc(-c2ccccc2Oc2ccccc2)cc1`, the IC50 in assay [1] was more than 1000 µM; in assay [2], 33 µM.

Regarding `CS(=O)(=O)c1ccc(-c2nccnc2-c2ccccc2)cc1`, the IC50 in assay [1] and in assay [2] was more than 300 µM in each case.

For `CS(=O)(=O)c1ccc(-c2cc(O)ccc2-c2ccccc2)cc1`, the IC50 in assay [1] is 404 µM; in assay [2] it was 147 µM.

On to `COC(=O)c1ccc(-c2ccccc2)c(-c2ccc(S(C)(=O)=O)cc2)c1`, for which the IC50 was more than 300 µM in assay [1] and 48 µM in assay [2].

With `CS(=O)(=O)c1ccc(-c2ccccc2C2=CCCCC2)cc1`, the values for the IC50 in assay [1] and in assay [2] were more than 1000 µM and 33 µM, respectively.

Turning to `CS(=O)(=O)c1ccc(-c2ccccc2Cc2ccccc2)cc1`, the IC50 in assay [1] and in assay [2] was more than 300 µM in each case.

Regarding `CS(=O)(=O)c1ccc(-c2ccccc2-c2cccnc2)cc1`, the IC50 in assay [1] was more than 300 µM; in assay [2], 87 µM.

`CS(=O)(=O)c1ccc(-c2ccccc2-c2ccccn2)cc1`: the IC50 in assay [1] and in assay [2] was more than 300 µM each time.

`CS(=O)(=O)c1ccc(-c2ccc(N)cc2-c2ccccc2)cc1`: the IC50 in assay [1] stood at 17 µM; in assay [2], 254 µM.

For `CS(=O)(=O)c1ccc(-c2ncccc2-c2ccccc2)cc1`, the IC50 in assay [1] and in assay [2] was more than 300 µM each time.

With `CS(=O)(=O)c1ccc(-c2cc(C(=O)O)ccc2-c2ccccc2)cc1`, the IC50 in assay [1] was 232 µM; in assay [2], more than 300 µM.

Regarding `CS(=O)(=O)c1ccc(-c2cccnc2-c2ccccc2)cc1`, the half-inhibitory concentration (IC50) in assay [1] was more than 1000 µM.
